{"source": "paper PMC10771590", "about": "“Pathway crosstalk between the central metabolic and heme biosynthetic pathways in Phanerochaete chrysosporium” (Applied Microbiology and Biotechnology, 2024)", "key": {"CS from rat kidney": {"tested_on": "CS from rat kidney", "parameters": "method as in Matsuoka and Srere 1973; Lee et al. 1997", "conditions": "ref Matsuoka and Srere 1973; Lee et al. 1997; cited from earlier work"}, "[1]": {"tested_on": "CS from Drosophila melanogaster", "parameters": "method as in Matsuoka and Srere 1973; Lee et al. 1997", "conditions": "ref Matsuoka and Srere 1973; Lee et al. 1997; cited from earlier work"}, "[2]": {"target": "T1, recombinant PcGAPDH (rPcGAPDH) (Phanerodontia chrysosporium, UniProt Q01982)", "T1 construct": "6xHis-tag (pET-30) (cleaved yes); made in house; host or cells: E. coli BL21(DE3)pLysS", "T1 sequence (Q01982 whole entry)": "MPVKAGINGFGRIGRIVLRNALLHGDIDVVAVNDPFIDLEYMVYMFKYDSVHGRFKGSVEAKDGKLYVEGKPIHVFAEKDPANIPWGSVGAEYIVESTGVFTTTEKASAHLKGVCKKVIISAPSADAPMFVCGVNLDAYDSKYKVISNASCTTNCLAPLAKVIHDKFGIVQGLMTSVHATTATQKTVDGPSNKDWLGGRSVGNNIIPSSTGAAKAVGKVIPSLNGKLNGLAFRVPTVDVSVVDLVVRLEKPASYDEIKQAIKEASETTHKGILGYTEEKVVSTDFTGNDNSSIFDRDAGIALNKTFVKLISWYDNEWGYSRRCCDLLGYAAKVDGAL", "test": "GAPDH assay and steady-state kinetic analysis", "type": "biochemical, Phanerochaete chrysosporium", "conditions": "1 μM inhibitor, 5-min incubation, 0.6 mM GAP3 (Fig. 2C)", "protocol": "GAPDH assay was performed as previously described (Campanale et al. [2003]). For steady-state kinetic analysis, the reaction mixture (1 ml) contained 40 mM phosphate (pH 7.6), 5.2 μg recombinant PcGAPDH (rPcGAPDH), 40 mM triethanolamine, 5 mM NAD^+, and 0.6–2 mM glyceraldehyde 3-phosphate (GAP3). Reactions were monitored by the increase in absorbance at 340 nm (ε 6220 M^–1 cm^–1) for 1 min, and initial velocities were determined. Inhibitory experiments were done in the presence of 0–2.5 μM hemin. To examine the effect of hemin on GAPDH kinetics, PcGAPDH was incubated with either buffer (control) or hemin for 5 min prior to initiating the reaction. Kinetic parameters were determined from Lineweaver–Burk plots, and Ki values were determined from the secondary plot of each slope of the Lineweaver–Burk plots. Immediately prior to use, hemin was dissolved at 10 mM in 0.1 M NaOH and diluted with 40 mM Tris–HCl (pH 7.5).\nFig. 2 Heterologous expression of PcGAPDH and inhibitory effect of hemin on GAPDH reaction. A M, molecular weight marker; lane 1, rPcGAPDH-His-tag; lane 2, His-tag-cleaved rPcGAPDH. B Reaction mixtures containing 2.5 nM rPcGAPDH, 40 mM phosphate (pH 7.6), 40 mM triethanolamine, 5 mM NAD^+, and 0.6–2 mM GAP3. […] Inset: secondary plots of each slope of Lineweaver–Burk plots against the concentration of hemin for determining inhibition constants. C Reaction mixtures containing 2.5 nM rPcGAPDH, 40 mM phosphate (pH 7.6), 40 mM triethanolamine, 5 mM NAD^+, and 0.6 mM GAP3. Reactions were started by adding substrates followed by 5-min incubation with either buffer or 1 μM inhibitor (hemin or protoporphyrin IX, PPIX). […] All experiments were performed in triplicate. Bars indicated as mean values ± standard deviation (error bars)"}, "[3]": {"target": "T2, rPcCS (mitochondrial citrate synthase) (Phanerodontia chrysosporium, UniProt Q0EAA7)", "T2 sequence (Q0EAA7 1-446)": "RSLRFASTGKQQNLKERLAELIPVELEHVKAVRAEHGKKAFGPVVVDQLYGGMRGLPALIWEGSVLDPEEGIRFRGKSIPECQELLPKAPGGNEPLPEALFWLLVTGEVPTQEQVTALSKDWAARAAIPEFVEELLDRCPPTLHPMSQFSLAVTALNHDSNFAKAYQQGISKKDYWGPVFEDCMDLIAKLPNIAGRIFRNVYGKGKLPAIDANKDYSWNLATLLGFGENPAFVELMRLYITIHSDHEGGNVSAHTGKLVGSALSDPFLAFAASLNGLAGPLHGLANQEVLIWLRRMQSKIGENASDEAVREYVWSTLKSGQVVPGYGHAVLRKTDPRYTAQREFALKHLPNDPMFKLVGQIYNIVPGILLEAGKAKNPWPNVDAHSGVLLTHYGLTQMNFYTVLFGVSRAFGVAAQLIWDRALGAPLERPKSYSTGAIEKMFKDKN", "test": "CS assay (DTNB method) and steady-state kinetic analysis", "type": "biochemical, Phanerochaete chrysosporium", "conditions": "at a concentration more than 10 times the inhibitory concentration of hemin (data not shown)", "protocol": "CS was assayed by the 5, 5′-dithiobis-2-nitrobenzoic acid (DTNB) method, as described previously (Srere et al. [1963]). […] CS catalyzes the reaction of OAA with AcCoA, generating citrate and CoA. Thus, reactions were monitored by the amount of released CoA, which was followed at 412 nm (ε 13 600 M^–1cm^–1) by the formation of 2-nitro-5-mercaptobenzoic acid, via the reaction of CoA with DTNB. Reactions were monitored for 1 min, and initial velocity was determined. […] Inhibition studies were carried out in the presence of 0–2.5 μM hemin as described above. Kinetic parameters were determined from Lineweaver–Burk plots, and Ki values were determined from the secondary plot of the slopes of the Lineweaver–Burk plots. Hemin and OAA solutions were prepared immediately prior to use.\nFig. 5 Inhibitory effect of hemin on PcCS reaction. […] Reaction mixtures contained 1.5 nM rPcCS, 40 mM Tris-HCl (pH 8.5), and 120 μM DTNB. Fixed substrate was added at 12 μM and variable substrate at 3–12 μM. […] Insets: secondary plots of each slope of Lineweaver–Burk plots against the concentration of hemin for determining inhibition constants."}, "[4]": {"substrate": "O=C(O)CC(=O)C(=O)O", "test": "purified protein, by the assay type", "conditions": "other: rPcCS, substrate OAA; pH 8.5"}, "[5]": {"substrate": "CC(=O)SCCNC(=O)CCNC(=O)[C@H](O)C(C)(C)COP(=O)(O)OP(=O)(O)OC[C@H]1O[C@@H](n2cnc3c(N)ncnc32)[C@H](O)[C@@H]1OP(=O)(O)O", "test": "purified protein, by the assay type", "conditions": "other: rPcCS, substrate AcCoA; pH 8.5"}}}
{"molecule": "CC(C)(COP(=O)(O)OP(=O)(O)OC[C@H]1O[C@@H](n2cnc3c(N)ncnc32)[C@H](O)[C@@H]1OP(=O)(O)O)[C@@H](O)C(=O)NCCC(=O)NCCS", "note": "[CoA, coenzyme A]", "values": [{"measurement": "mode of inhibition", "setting": "CS from rat kidney", "result": "competitive inhibitors of AcCoA and as non-competitive inhibitors of OAA"}, {"measurement": "mode of inhibition", "setting": "[1]", "result": "competitive inhibitors of AcCoA and as non-competitive inhibitors of OAA"}]}
{"molecule": "C=CC1=C(C)c2cc3[nH]c(cc4nc(cc5[nH]c(cc1n2)c(C)c5CCC(=O)O)C(CCC(=O)O)=C4C)c(C)c3C=C", "note": "[protoporphyrin IX]", "values": [{"measurement": "inhibition of PcGAPDH activity", "setting": "[2]", "result": "as effectively as by hemin"}, {"measurement": "inhibition of PcCS", "setting": "[3]", "result": "slightly inhibited"}]}
{"molecule": "CCC(=O)SCCNC(=O)CCNC(=O)[C@H](O)C(C)(C)COP(=O)(O)OP(=O)(O)OC[C@H]1O[C@@H](n2cnc3c(N)ncnc32)[C@H](O)[C@@H]1OP(=O)(O)O", "note": "[propionyl-CoA]", "values": [{"measurement": "mode of inhibition", "setting": "CS from rat kidney", "result": "competitive inhibitors of AcCoA and as non-competitive inhibitors of OAA"}, {"measurement": "mode of inhibition", "setting": "[1]", "result": "competitive inhibitors of AcCoA and as non-competitive inhibitors of OAA"}]}
{"molecule": "rPcCS (mitochondrial citrate synthase) (Phanerodontia chrysosporium) (protein) RSLRFASTGKQQNLKERLAELIPVELEHVKAVRAEHGKKAFGPVVVDQLYGGMRGLPALIWEGSVLDPEEGIRFRGKSIPECQELLPKAPGGNEPLPEALFWLLVTGEVPTQEQVTALSKDWAARAAIPEFVEELLDRCPPTLHPMSQFSLAVTALNHDSNFAKAYQQGISKKDYWGPVFEDCMDLIAKLPNIAGRIFRNVYGKGKLPAIDANKDYSWNLATLLGFGENPAFVELMRLYITIHSDHEGGNVSAHTGKLVGSALSDPFLAFAASLNGLAGPLHGLANQEVLIWLRRMQSKIGENASDEAVREYVWSTLKSGQVVPGYGHAVLRKTDPRYTAQREFALKHLPNDPMFKLVGQIYNIVPGILLEAGKAKNPWPNVDAHSGVLLTHYGLTQMNFYTVLFGVSRAFGVAAQLIWDRALGAPLERPKSYSTGAIEKMFKDKN", "values": [{"measurement": "Km", "setting": "[4]", "result": 6.2, "unit": "µM"}, {"measurement": "Vmax", "setting": "[4]", "result": 31.4, "unit": "nmol/min/mL"}, {"measurement": "Km", "setting": "[5]", "result": 4.2, "unit": "µM"}, {"measurement": "Vmax", "setting": "[5]", "result": 25.8, "unit": "nmol/min/mL"}]}
